Results taken from ChEMBL document CHEMBL5724914, “Linking interpersonal differences in gut microbiota composition and drug biotransformation activity” (2024).

Columns and labels:
[1] = (§1) The drug is tested on Z-028 corresponding to mouse gut metagenome with ENA study accession number: PRJEB37062 and ENA sample accession number: ERS12561827 for biotransformation under anaerobic condition. The drug concentrations were measured over 9 timepoints collected between 0 and 24 hours of incubation by liquid-chromatography-coupled mass spectrometry (LC–MS); details: 2 µM
[2] = as §1, with “Z-025” for “Z-028”, “rabbit” for “mouse”, “ERS12561824” for “ERS12561827”; details: 2 µM
[3] = as §1, with “Z-022” for “Z-028”, “ERS12561821” for “ERS12561827”; details: 2 µM
[4] = as §1, with “Z-018” for “Z-028”, “pig” for “mouse”, “ERS12561817” for “ERS12561827”; details: 2 µM
[5] = as §1, with “Z-005” for “Z-028”, “to” for “to mouse gut”, “ERS12561805” for “ERS12561827”; details: 2 µM
[6] = as §1, with “Z-003” for “Z-028”, “pig” for “mouse”, “ERS12561803” for “ERS12561827”; details: 2 µM
[7] = as §1, with “Z-002” for “Z-028”, “rabbit” for “mouse”, “ERS12561802” for “ERS12561827”; details: 2 µM
[8] = as §1, with “WLS-310” for “Z-028”, “human” for “mouse”, “ERS12561785” for “ERS12561827”; details: 2 µM
[9] = as §1, with “WLS-086” for “Z-028”, “human” for “mouse”, “ERS12561752” for “ERS12561827”; details: 2 µM
[10] = as §1, with “WLS-073” for “Z-028”, “human” for “mouse”, “ERS12561749” for “ERS12561827”; details: 2 µM
[11] = as §1, with “WLS-069” for “Z-028”, “human” for “mouse”, “ERS12561748” for “ERS12561827”; details: 2 µM
[12] = human gut metagenome, 24 h, 2 µM
[13] = human gut metagenome, 24 h, 2 µM; remark: listed apart in the source
[14] = human gut metagenome, 24 h, 2 µM; remark: listed apart in the source
[15] = human gut metagenome, 24 h, 2 µM; remark: listed apart in the source
[16] = human gut metagenome, 24 h, 2 µM; remark: listed apart in the source
[17] = human gut metagenome, 24 h, 2 µM; remark: listed apart in the source
[18] = human gut metagenome, 24 h, 2 µM; remark: listed apart in the source
[19] = human gut metagenome, 24 h, 2 µM; remark: listed apart in the source
[20] = human gut metagenome, 24 h, 2 µM; remark: listed apart in the source
Note: call rule not given here.

Row | SMILES | Bacterial Biotransformation [1] | Bacterial Biotransformation [2] | Bacterial Biotransformation [3] | Bacterial Biotransformation [4] | Bacterial Biotransformation [5] | Bacterial Biotransformation [6] | Bacterial Biotransformation [7] | Bacterial Biotransformation [8] | Bacterial Biotransformation [9] | Bacterial Biotransformation [10] | Bacterial Biotransformation [11] | Bacterial Biotransformation [12] | Bacterial Biotransformation [13] | Bacterial Biotransformation [14] | Bacterial Biotransformation [15] | Bacterial Biotransformation [16] | Bacterial Biotransformation [17] | Bacterial Biotransformation [18] | Bacterial Biotransformation [19] | Bacterial Biotransformation [20]
1 | CC(C)c1nc(N(C)S(C)(=O)=O)nc(-c2ccc(F)cc2)c1/C=C/[C@@H](O)C[C@@H](O)CC(=O)[O-].CC(C)c1nc(N(C)S(C)(=O)=O)nc(-c2ccc(F)cc2)c1/C=C/[C@@H](O)C[C@@H](O)CC(=O)[O-].[Ca+2] [ROSUVASTATIN CALCIUM] | Compound NOT metabolized | Compound NOT metabolized | Compound NOT metabolized | Compound NOT metabolized | Compound NOT metabolized | Compound NOT metabolized | Compound NOT metabolized | Compound metabolized | Compound metabolized | Compound NOT metabolized | Compound metabolized | Compound metabolized | Compound metabolized | Compound metabolized | Compound metabolized | Compound NOT metabolized | Compound metabolized | Compound NOT metabolized | Compound metabolized | Compound metabolized
2 | O=C(O)c1cc(/N=N/c2ccc(S(=O)(=O)Nc3ccccn3)cc2)ccc1O [SULFASALAZINE] | Compound metabolized | Compound metabolized | Compound metabolized | Compound metabolized | Compound metabolized | Compound metabolized | Compound metabolized | Compound metabolized | Compound metabolized | Compound metabolized | Compound metabolized | Compound metabolized | Compound metabolized | Compound metabolized | Compound metabolized | Compound metabolized | Compound metabolized | Compound metabolized | Compound metabolized | Compound metabolized
3 | C=CC[C@@H]1/C=C(\C)C[C@H](C)C[C@H](OC)[C@H]2O[C@@](O)(C(=O)C(=O)N3CCCC[C@H]3C(=O)O[C@H](/C(C)=C/[C@@H]3CC[C@@H](O)[C@H](OC)C3)[C@H](C)[C@@H](O)CC1=O)[C@H](C)C[C@@H]2OC.O [TACROLIMUS] | Compound NOT metabolized | Compound NOT metabolized | Compound NOT metabolized | Compound NOT metabolized | Compound NOT metabolized | Compound metabolized | Compound metabolized | Compound metabolized | Compound metabolized | Compound metabolized | Compound metabolized | Compound metabolized | Compound NOT metabolized | Compound metabolized | Compound metabolized | Compound metabolized | Compound metabolized | Compound metabolized | Compound metabolized | Compound NOT metabolized
4 | CCS(=O)(=O)CCn1c([N+](=O)[O-])cnc1C [TINIDAZOLE] | Compound metabolized | Compound metabolized | Compound metabolized | Compound metabolized | Compound metabolized | Compound metabolized | Compound metabolized | Compound metabolized | Compound metabolized | Compound metabolized | Compound metabolized | Compound metabolized | Compound metabolized | Compound metabolized | Compound metabolized | Compound metabolized | Compound metabolized | Compound metabolized | Compound metabolized | Compound metabolized
5 | COc1ccc(CN2CCNCC2)c(OC)c1OC.Cl.Cl [TRIMETAZIDINE DIHYDROCHLORIDE] | Compound NOT metabolized | Compound NOT metabolized | Compound NOT metabolized | Compound NOT metabolized | Compound NOT metabolized | Compound NOT metabolized | Compound NOT metabolized | Compound NOT metabolized | Compound NOT metabolized | Compound NOT metabolized | Compound NOT metabolized | Compound NOT metabolized | Compound NOT metabolized | Compound NOT metabolized | Compound NOT metabolized | Compound NOT metabolized | Compound NOT metabolized | Compound NOT metabolized | Compound NOT metabolized | Compound NOT metabolized
6 | CN1[C@@H]2CC[C@H]1C[C@@H](OC(=O)c1c[nH]c3ccccc13)C2 [TROPISETRON] | Compound NOT metabolized | Compound NOT metabolized | Compound NOT metabolized | Compound NOT metabolized | Compound NOT metabolized | Compound NOT metabolized | Compound NOT metabolized | Compound NOT metabolized | Compound metabolized | Compound NOT metabolized | Compound NOT metabolized | Compound NOT metabolized | Compound NOT metabolized | Compound NOT metabolized | Compound NOT metabolized | Compound NOT metabolized | Compound NOT metabolized | Compound NOT metabolized | Compound NOT metabolized | Compound NOT metabolized
